Test results reported in the supplement of paper PMC11208160.

Test: recombinant barcode read abundance after kanamycin selection (control-corrected) (log10(CPM+1)); higher = more efficient recombination; sequences stand for … in AGTGCAGAGAAAATCGGCCAGTTTTCTCTGCCTGCAGTCCGCATGCCGT…AGATTTATGCAGCGGACTGCCTTTCTCCCAAAGTGATAAACCGGACAGTATCATGGACCGGTTTTCCCGGTAATCCGTATTTGCAAGGTTGGTTTCACT; site = the 11-nt target
Summary of the method: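 Targets were screened in pooled form in E. coli against IS621 bridge RNA target-binding loops. Recombination efficiency is based on barcode counts at recombinant junctions in counts per million, averaged and corrected for the control. Numbers are shown as log10(CPM+1), with duplicate plates on chloramphenicol/ampicillin LB agar (control) or chloramphenicol/ampicillin/kanamycin with 0.1 mM IPTG.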
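Also: IS621 recombinase and bridge RNA in Escherichia coli cells.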

Row | Sequence | recombinant barcode read abundance (log10)
1 | GGGCCTACTTGGGTTCTAACCTGTTGCTA (site GGGCCTACTGA) | 0.482
2 | GGGCCTACTTGGGTTCTAACCTGTTGCTA (site GGGCCTACTTA) | 1.36
3 | GGGCCTACTTGGGTTCTAACCTGTTGCTG (site GGGCCTACTAA) | 0.165
4 | GGGCCTACTTGGGTTCTAACCTGTTGCTG (site GGGCCTACTCA) | 2.06
5 | GGGCCTACTTGGGTTCTAACCTGTTGCTG (site GGGCCTACTGA) | 0.215
6 | GGGCCTACTTGGGTTCTAACCTGTTGCTG (site GGGCCTACTTA) | 0.121
7 | GGGGAATCTTGGGTTCTAACCTGTTGCAT (site GGGGAATCTAT) | 1.96
8 | GGGGAATCTTGGGTTCTAACCTGTTGCAT (site GGGGACTCTGT) | 0.079
9 | GGGGACTCTTGGGTTCTAACCTGTTGCAC (site GGGGAATCTAT) | 0.0994
10 | GGGGACTCTTGGGTTCTAACCTGTTGCAC (site GGGGACTCTGT) | 3.1
11 | GGGGCACCTTGGGTTCTAACCTGTTGCTA (site GGGGCACCTTA) | 2.35
12 | GGGGCACCTTGGGTTCTAACCTGTTGCTA (site TGGGCACCTAA) | 0.128
13 | GGGGCGCCTTGGGTTCTAACCTGTTGCCT (site GGGGCGACTAG) | 0.44
14 | GGGGCGCCTTGGGTTCTAACCTGTTGCCT (site GGGGCGCCTAG) | 1.76
15 | GGGGCGCCTTGGGTTCTAACCTGTTGCCT (site GGGGCGGCTAG) | 0
16 | GGGGCGCCTTGGGTTCTAACCTGTTGCCT (site GGGGCGTCTAG) | 0.279
17 | GGGGTGTCTTGGGTTCTAACCTGTTGCCG (site ATTTAACCTAC) | 0.0514
18 | GGGGTGTCTTGGGTTCTAACCTGTTGCCG (site GGGGTGTCTCG) | 0.675
19 | GGGGTGTCTTGGGTTCTAACCTGTTGCTG (site GGGCTGTCTAA) | 0.448
20 | GGGGTGTCTTGGGTTCTAACCTGTTGCTG (site GGGGTGTCTCA) | 0.413
21 | GGGGTTCCTTGGGTTCTAACCTGTTGCAT (site GGGGTTCCTAA) | 0.164
22 | GGGGTTCCTTGGGTTCTAACCTGTTGCAT (site GGGGTTCCTAC) | 0.129

Row | Sequence | recombinant barcode read abundance (log10)
23 | GGGGTTCCTTGGGTTCTAACCTGTTGCAT (site GGGGTTCCTAG) | 1.19
24 | GGGGTTCCTTGGGTTCTAACCTGTTGCAT (site GGGGTTCCTAT) | 2.47
25 | GGGTCACCTTGGGTTCTAACCTGTTGCGG (site CCAAAGACTAA) | 0.564
26 | GGGTCACCTTGGGTTCTAACCTGTTGCGG (site GGGTCACCTCC) | 2.8
27 | GGGTCCACTTGGGTTCTAACCTGTTGCGG (site GGGTCCACTCC) | 2.02
28 | GGGTCCACTTGGGTTCTAACCTGTTGCGG (site GGGTCCACTTG) | 0.143
29 | GGGTCGCCTTGGGTTCTAACCTGTTGCTT (site CGGCCGCCTAA) | 0.364
30 | GGGTCGCCTTGGGTTCTAACCTGTTGCTT (site GGGTCGCCTAA) | 0.128
31 | GGGTCGGCTTGGGTTCTAACCTGTTGCGT (site GGGTCGGCTAC) | 2.68
32 | GGGTCGGCTTGGGTTCTAACCTGTTGCGT (site GGGTCGGCTCC) | 0.076
33 | GGGTCGGCTTGGGTTCTAACCTGTTGCGT (site GGGTCGGCTGC) | 0.347
34 | GGGTCGGCTTGGGTTCTAACCTGTTGCGT (site GGGTCGGCTTC) | 0.0402
35 | GGGTCTTCTTGGGTTCTAACCTGTTGCAT (site GGGACTTCTAT) | 0.0343
36 | GGGTCTTCTTGGGTTCTAACCTGTTGCAT (site GGGCCTTCTAT) | 0.152
37 | GGGTCTTCTTGGGTTCTAACCTGTTGCAT (site GGGGCTTCTAT) | 0.0588
38 | GGGTCTTCTTGGGTTCTAACCTGTTGCAT (site GGGTCTTCTAT) | 0.575
39 | GGGTTTGCTTGGGTTCTAACCTGTTGCCT (site GAGTTTGCTAG) | 0
40 | GGGTTTGCTTGGGTTCTAACCTGTTGCCT (site GCGTTTGCTAG) | 0.0869
41 | GGGTTTGCTTGGGTTCTAACCTGTTGCCT (site GGGTTTGCTAG) | 1.14
42 | GGGTTTGCTTGGGTTCTAACCTGTTGCCT (site GTGTTTGCTAG) | 0.667
43 | GGTACTACTTGGGTTCTAACCTGTTGCAT (site CGTACTACTGT) | 0.0302
44 | GGTACTACTTGGGTTCTAACCTGTTGCAT (site GGTACTACTAT) | 0.54

Row | Sequence | recombinant barcode read abundance (log10)
45 | GGTAGATCTTGGGTTCTAACCTGTTGCTT (site GGTAGATCTAA) | 0.599
46 | GGTAGATCTTGGGTTCTAACCTGTTGCTT (site GGTAGGCCTAA) | 0.0553
47 | GGTCAAACTTGGGTTCTAACCTGTTGCCT (site GGTCAAACTAG) | 0.492
48 | GGTCAAACTTGGGTTCTAACCTGTTGCCT (site GGTCCAACTAG) | 0.0951
49 | GGTCAAACTTGGGTTCTAACCTGTTGCCT (site GGTCGAACTAG) | 0.109
50 | GGTCAAACTTGGGTTCTAACCTGTTGCCT (site GGTCTAACTAG) | 0.0309
51 | GGTCAACCTTGGGTTCTAACCTGTTGCGG (site GGTCAACCTCC) | 2.5
52 | GGTCAACCTTGGGTTCTAACCTGTTGCGG (site TACTCTTCTAG) | 0.113
53 | GGTCATACTTGGGTTCTAACCTGTTGCCT (site GGTCATACTAG) | 0.455
54 | GGTCATACTTGGGTTCTAACCTGTTGCCT (site GGTCATCCTAG) | 0.0309
55 | GGTCATACTTGGGTTCTAACCTGTTGCCT (site GGTCATGCTAG) | 0.074
56 | GGTCATACTTGGGTTCTAACCTGTTGCCT (site GGTCATTCTAG) | 0.246
57 | GGTCCTCCTTGGGTTCTAACCTGTTGCGA (site GGTCCTCCTTC) | 0.847
58 | GGTCCTCCTTGGGTTCTAACCTGTTGCGA (site TCCTAGTCTCT) | 0.229
59 | GGTCGCGCTTGGGTTCTAACCTGTTGCCT (site GGTCGAGCTAG) | 0.113
60 | GGTCGCGCTTGGGTTCTAACCTGTTGCCT (site GGTCGCGCTAG) | 0.535
61 | GGTCGCGCTTGGGTTCTAACCTGTTGCCT (site GGTCGGGCTAG) | 0.832
62 | GGTCGCGCTTGGGTTCTAACCTGTTGCCT (site GGTCGTGCTAG) | 0.0211
63 | GGTGACCCTTGGGTTCTAACCTGTTGCAT (site GGTGACCCTAT) | 2.75
64 | GGTGACCCTTGGGTTCTAACCTGTTGCAT (site TCGTGAGCTCA) | 0.97
65 | GGTGACCCTTGGGTTCTAACCTGTTGCGG (site GGTAACCCTCC) | 2.05
66 | GGTGACCCTTGGGTTCTAACCTGTTGCGG (site GGTCACCCTCC) | 0.224

Row | Sequence | recombinant barcode read abundance (log10)
67 | GGTGACCCTTGGGTTCTAACCTGTTGCGG (site GGTGACCCTCC) | 2.73
68 | GGTGACCCTTGGGTTCTAACCTGTTGCGG (site GGTTACCCTCC) | 0.33
69 | GGTGCTCCTTGGGTTCTAACCTGTTGCTT (site ATTGCTCCTAA) | 0.135
70 | GGTGCTCCTTGGGTTCTAACCTGTTGCTT (site GGTGCTCCTAA) | 0.0711
71 | GGTGGGTCTTGGGTTCTAACCTGTTGCTT (site GGTGGGTCTAA) | 1.9
72 | GGTGGGTCTTGGGTTCTAACCTGTTGCTT (site GGTGGGTCTAC) | 0.663
73 | GGTGGGTCTTGGGTTCTAACCTGTTGCTT (site GGTGGGTCTAG) | 0.929
74 | GGTGGGTCTTGGGTTCTAACCTGTTGCTT (site GGTGGGTCTAT) | 1.69
75 | GGTTAGCCTTGGGTTCTAACCTGTTGCCT (site GGTTAGCCTAG) | 0.579
76 | GGTTAGCCTTGGGTTCTAACCTGTTGCCT (site TGTTAGCCTTG) | 0.0783
77 | GGTTATCCTTGGGTTCTAACCTGTTGCGG (site GGTTATCCTCC) | 1.17
78 | GGTTATCCTTGGGTTCTAACCTGTTGCGG (site TTACGCTCTTA) | 0.0896
79 | GGTTCACCTTGGGTTCTAACCTGTTGCAG (site GGTTCACCTCT) | 1.05
80 | GGTTCACCTTGGGTTCTAACCTGTTGCAG (site GGTTGACCTAT) | 0.0489
81 | GGTTGAACTTGGGTTCTAACCTGTTGCAT (site GCTTGAACTAA) | 0.128
82 | GGTTGAACTTGGGTTCTAACCTGTTGCAT (site GGTTGAACTAT) | 0.0521
83 | GGTTGCACTTGGGTTCTAACCTGTTGCCT (site AGTTGCTCTAG) | 0.189
84 | GGTTGCACTTGGGTTCTAACCTGTTGCCT (site GGTTGCACTAG) | 0.4
85 | GTAAACTCTTGGGTTCTAACCTGTTGCCT (site GTAAACTCTAG) | 1.98
86 | GTAAACTCTTGGGTTCTAACCTGTTGCCT (site GTCAACTCTAG) | 0.0684
